Measurements published in PubChem BioAssay AID2305 (GlaxoSmithKline (GSK), 2010).

System: P. falciparum 3D7 growth, pLDH absorbance
Test: blood-stage malaria parasite growth potency – strain 3D7, dose response (AID 2305)

SMILES	IC50 [nM]
O=C(NC1CCN(Cc2ccccc2)CC1)c1ccc(-c2nc3cc(F)c(F)cc3[nH]2)s1	830
CCOc1cc(Cc2cnc(N)nc2N)cc(OCC)c1-n1cccc1	760
CN1CCC(Oc2cc(NC(=O)Nc3ccc(-c4ccncc4)c(C(F)(F)F)c3)ccc2Cl)CC1	780
COc1ccc2[nH]cc(C3CCN(CCCCCNC(=O)c4ccc(-c5ccccc5)cc4)CC3)c2c1	800
O=C(/C=C/c1ccc(Cl)c(Cl)c1)NCCCCN1CCC(c2c[nH]c3ccccc23)CC1	860
COc1cccc(C(=O)NCc2n[nH]c(=S)n2-c2ccc(Cl)c(Cl)c2)c1	170
Cc1cc(Cl)c(S(=O)(=O)NC(C)(C)C)cc1OCC(=O)NC1CCCCC1	550
CN(C)CCN(Cc1ccc(-c2ccc(CNCCc3ccccc3)cc2)nc1)C(=O)CCC1CCCC1	800
CSc1cccc(NC(=O)Nc2ccc(I)c(OCCN(C)C)c2)c1	690
COc1cc(NC(=O)N2CCc3cc(OC)c(OCCN4CCCCC4)cc32)cc(C(F)(F)F)c1	1150
CCCCCCSc1nnc(COc2cccc3ccccc23)n1-c1ccc(OC)cc1	50
CC(C)COc1ccc(Cl)cc1Cc1ccc(-c2nc3ccc(CCN4CCCC4)cc3[nH]2)o1	730
Cc1nc(N2CCC(C)CC2)c2c3c(sc2n1)CCCC3	1060
CC(C)(CNC(=O)[C@@H]1CCCCN1)c1nc(-c2ccc(Cl)c(O)c2)c(-c2ccncc2)[nH]1	840
O=C(NCCNc1ccnc(Nc2ccc(F)cc2)n1)Nc1ccc2c(c1)OCO2	680
Fc1ccc(CNc2ccc3ncc(-c4cccnc4)n3n2)cc1	930
O=c1[nH]ccc2nc(N[C@@H]3CCNC3)nc(Nc3cc(Cl)cc(Cl)c3)c12	740
O=[N+]([O-])c1ccc(C=NNc2nc(Nc3ccccc3)nc(Nc3ccccc3)n2)o1	840
Cn1nccc1C(=O)NCCNCc1ccc(-c2cccc(-c3nc4ccc(F)cc4[nH]3)c2)cc1	220
COc1cc(NC(=O)/C=C/c2cc(F)cc(F)c2F)cc(OCCN2CCC3(CC2)OCCO3)c1	270
ON=C1CCc2cc(-c3cc(-c4ccc(OC5CCNCC5)cc4)oc3-c3ccncc3)ccc21	160
O=C(/C=C/c1ccc(Cl)c(Cl)c1)NCCCCCN1CCCC(c2c[nH]c3ccccc23)C1 (stereo not drawn)	810
COCCNCc1ccc(-c2ccc(CN(C(=O)Nc3ccccc3)C3CCN(Cc4ccccc4)CC3)cc2)cc1	750
O=C(Nc1cccc(-c2ccc(-c3nc4ccc(F)cc4[nH]3)cc2)c1)Nc1ccc(F)c(F)c1F	110
Cc1ccccc1N1CCN(c2ccc(C(=O)NC3CC3)cn2)CC1	460

SMILES	IC50 [nM]
Cc1cccc2[nH]c(-c3cccc(-c4ccc(NC(=O)COC(C)C)cc4)c3)nc12	1190
CN1CCCC(CN2CCN(Cc3ccc(-c4ccc(-c5nc6ccc(F)cc6[nH]5)cc4)cc3)CC2)C1 (stereo not drawn)	120
Oc1cc(-c2nc(C3(CNCc4ccc(Cl)cc4)CCCCC3)[nH]c2-c2ccncc2)ccc1Cl	130
Cc1ccc(C(=O)Nc2ccc(Nc3ccnc4cc(-c5nccs5)ccc34)cc2O)cc1	50
COc1ccc(C2CCC(NCCCCNC(=O)c3ccc(NC(=O)c4ccc(Cl)cc4)cc3)CC2)cc1 (stereo not drawn)	630
O=C(CCC1CCCC1)N(Cc1ccc(-c2ccc(CNCCc3ccccc3)cc2)cc1)C1CCCNC1 (stereo not drawn)	1220
O=S(=O)(NCCN1CCCC1)c1ccc(-c2cccc(CNC3Cc4ccccc4C3)c2)cc1	620
CN(C)CCN(C)Cc1ccc(-c2ccc3c(Nc4ccc(Cl)cc4F)ccnc3c2)o1	360
O=C(/C=C/c1ccc(Cl)c(Cl)c1)NCCCCCN1CCCC(C(=O)Nc2ccc(F)c(Cl)c2)C1 (stereo not drawn)	900
Cc1ccc(CC(C)NCC(O)c2cccc(Cl)c2)cc1 (stereo not drawn)	930
CCC(=C(CC)c1ccc(O)c(CNC2CCCCC2)c1)c1ccc(O)c(CNC2CCCCC2)c1	150
C[C@H]1[C@H](c2cccc(Cl)c2)OCC(C)(C)N1C(=O)CCN1CCCCC1	920
Cn1nccc1C(=O)NCCNCc1cccc(-c2csc(-c3nc4ccccc4[nH]3)c2)c1	840
CN1CCN(CCCN(Cc2cccc(-c3cccc(CNC4CCCC4)c3)c2)C(=O)/C=C/c2ccccc2)CC1	780
Cc1cc(NCCc2cccc(F)c2)nc(/N=C(\N)Nc2cccc(C(F)(F)F)c2)n1	150
c1cc(-c2ccc(CNCCc3ccncc3)cc2)cc(-c2nc3ccccc3[nH]2)c1	140
COc1ccc(C(C(=O)NC2CCN(C[C@H](O)c3ccnc4ccc(OC)cc34)CC2)N2CCN(c3ccc([N+](=O)[O-])cc3)CC2)cc1 (stereo partly drawn)	230
COc1ccc(O)c(-c2sc(N=C(N)N)nc2-c2ccccc2)c1	370
COc1ccccc1C1CCN(C2CCC(NC(=O)/C=C/c3ccc4c(c3)OC(F)(F)O4)CC2)CC1 (stereo not drawn)	840
CCN(CCCN1CCCCC1)c1cc(C)nc(Nc2ccc(Cl)c(C(F)(F)F)c2)n1	170
COc1cc2ncnc(Nc3ccc(OCc4ccccc4)c(C(F)(F)F)c3)c2cc1OC	250
NC1CCN(Cc2ccc(-c3ccc(-c4nc5ccc(F)cc5[nH]4)cc3)cc2)C1 (stereo not drawn)	180
CC(C)CCNC(=O)c1cc(C(=O)c2cc(F)ccc2O)cn(CCC(C)C)c1=O	750
NC1CCN(Cc2ccc(-c3ccc(-c4nc5ccccc5[nH]4)s3)cc2)C1 (stereo not drawn)	740
COc1cccc(-c2ccc(C(=O)NC3CCN(Cc4ccc(N(C)C)cc4)CC3)s2)c1	1390

SMILES	IC50 [nM]
CN(C)CCCc1cc2c(cc1Cl)CCN2C(=O)Nc1ccc(-c2ccncc2)c2ccccc12	1180
NC1=NC(c2ccccc2)(c2ccccn2)C(=O)N1CCCc1ccccc1 (stereo not drawn)	1040
O=C(CCc1ccco1)NC1CCN(CC2(c3ccc(Cl)cc3)CCC2)CC1	1450
CN(C)CCN(C)C(=O)c1cc(-c2ccncc2)c(-c2ccc(Cl)c(O)c2)o1	1050
CNC(=O)C1Cc2c([nH]c3c(C)cccc23)C2(N1)C(=O)Nc1ccc(OC(F)(F)F)cc12 (stereo not drawn)	460
O=[N+]([O-])c1cccc(C=NNc2nc(Nc3ccccc3)nc(Nc3ccccc3)n2)c1	970
O=C(NCc1cccc(F)c1)Nc1ccc(-c2cccc(-c3nc4ccccc4[nH]3)c2)cc1	890
CCc1cn2c3c(cc(C(=O)N[C@@H](Cc4ccccc4)[C@H](O)CN[C@@H](C)CC)cc13)N(C)S(=O)(=O)CC2	70
N#Cc1ccc2c(c1)CCN(CCC1CCC(NC(=O)c3cccc(-c4ccc(F)cc4)c3)CC1)CC2 (stereo not drawn)	820
O=C(Nc1cc(Cl)cc(Cl)c1)c1cnn(-c2ccc(F)cc2)c1C1CCNCC1	850
CCCC[C@H](NC(=O)O[C@H](COc1ccc(OCc2ccccc2)cc1)C(C)(C)C)C(=O)C(=O)Nc1ccn[nH]1	990
O=C(NC1CCCC1)c1cc2c(=O)n3ccccc3nc2nc1NCCc1ccccc1	650
OCCCCCCN=Cc1[nH]c(=S)sc1O	850
CCOc1cc2ccccc2cc1CNCCCCCCNCc1cc2ccccc2cc1OCC	980
CCC(CC(C)C(=O)O)=C(c1ccccc1)c1ccccc1 (stereo not drawn)	220
O=C(Nc1cccnc1)c1cc(-c2cc(Cl)ccc2O)n[nH]1	720
CC(=O)c1nccc(C)c1N	930
Cc1ccc(NC(=O)c2cccc(CN3CCCN(Cc4cccc(O)c4)CC3)c2)cc1	1310
CCc1cc2c(=O)c(-c3nc(C)cs3)c([C@H](N)Cc3ccc(O)cc3)oc2cc1O	900
CC(C)(C)c1ccc(CNC(=O)/C=C/c2ccc(-c3nc4ccc(C(C)(C)C)cc4[nH]3)cc2)cc1	540
COc1cc2nc(Nc3ccc(Oc4ccccc4)cc3)nc(Nc3ccc(Oc4ccccc4)cc3)c2cc1OC	930
CCCCc1ccc(C(=O)NC2CCN(C[C@H](O)c3ccnc4ccc(OC)cc34)CC2)cc1	730
CC[C@H]1CN2CC[C@H]1C[C@H]2[C@H](O)c1cc(N2CCCC(C(=O)N(CC)CC)C2)nc2ccc(OC)cc12 (stereo partly drawn)	70
O=C(c1cccc(-c2cccc(-c3nc4ccc(F)cc4[nH]3)c2)c1)N1CCCCC1CN1CCC(O)C1 (stereo not drawn)	880
O=C(Nc1ccc(Cl)c(C(F)(F)F)c1)c1ccc(Cl)c([N+](=O)[O-])c1	1120

SMILES	IC50 [nM]
CCCc1cc(=O)oc2cc(OC)c(C(=O)CC(C)C)c(OC)c12	1010
O=C(COc1ccccc1)NC1CCN(c2ccnc3cc(Cl)ccc23)C1 (stereo not drawn)	700
Cc1ccc(NCc2cccc(F)c2)cc1S(=O)(=O)N[C@@H]1CCN(C#N)C1	790
CN(C)CCN(C)Cc1nc(-c2ccc3c(Nc4ccc(Oc5ccccc5)cc4)ccnc3c2)cs1	210
O=[N+]([O-])c1cccc(CNCC2CCN(Cc3ccc(O)cc3)CC2)c1	670
CCCCOC(=O)NCCCC[C@H](NC(=O)OC(C)(C)C)C(=O)N[C@H](C(=O)OC(c1ccccc1)c1ccccc1)[C@H]1O[C@@H](n2ccc(=O)[nH]c2=O)[C@@H]2OC(C)(C)O[C@@H]21	1090
COc1ccccc1-c1ccc(CNC(=O)C(CN2CCN(C)CC2)c2ccccc2)cc1 (stereo not drawn)	1260
CCCCCCNCc1c(O)ccc2c(CNCCCCCC)c(O)ccc12	130
O=C(c1ccc(O)c(-c2cc(Cl)cc(Cl)c2)c1)N1CCCC1	1000
CC(=O)c1ccc(NC(=O)NNC(=O)c2ccc(CCN3CCC(c4nc(COCC(F)(F)F)c(-c5ccc(F)cc5)o4)CC3)cc2)cc1	830
O=C(Nc1cccc(CN2CCN(C(=O)c3cccc(Cl)c3)CC2)c1)c1cccs1	180
CCC(N)(C#Cc1ccc(-c2c(C)[nH]c(C)c(Br)c2=O)cc1)CC	40
Cc1ccc(CNC(=O)[C@H](CCCN)Nc2cc(C)nc(Nc3ccccc3)n2)cc1	1290
CCc1cc2c(Sc3nnc(N)s3)ncnc2s1	660
Cc1ccc(Cl)cc1NC(=O)c1c(-c2ccccc2Cl)noc1C	190
O=[N+]([O-])c1ccc(-n2nc(-c3cccnc3)n(Cc3ccco3)c2=S)c(Cl)c1	200
COc1ccc(CCCCN2C(=O)C(c3ccccc3)(c3ccccc3)N=C2N)cc1	860
Clc1ccc(-c2ncc(-c3ccncc3)[nH]2)cc1Cl	1060
O=C(NCc1ccccc1)c1nn(CCCN2CCC3(CC2)C(=O)NCN3c2ccccc2)cc1-c1ccc(Cl)c(Cl)c1	1050
Fc1ccc2[nH]c3c(NCCN4CCCCC4)ncnc3c2c1	830
Cc1cc(C(=O)CSc2nc3ccccc3n2-c2ccccc2)c(C)n1C1CCS(=O)(=O)C1 (stereo not drawn)	1000
COc1ccc(Cc2cnc3nc(N)nc(N)c3c2C)cc1OC	10
CN1CC=C(c2c[nH]c3ccc(C(=O)c4nccs4)cc23)CC1	240
